{
  "source": "patent US20050112573A1",
  "about": "“Method of detecting toxic substance” (priority 2001, published 2005)",
  "tested_on": "yeast genes (level of expressed mRNA)",
  "experiment": "DNA chip analysis of expressed mRNA of yeast genes after 2 h culture with a toxic chemical substance",
  "type": "cell-based, Saccharomyces cerevisiae S288C",
  "description": "Yeast (Saccharomyces cerevtisiae S288C (α SUC2mal mel gap2 CUP1)) were cultured at 25° C. on YPD medium (yeast extract 1%, polypepton 2%, glucose 2%). One of toxic chemical substances was added to the cell at logarithmic growth phase, and the cell was further cultured for two hours. Cell was cultured without any chemical substance in the same condition, and was used as control. Concentrations of the chemical substances were defined to inhibit the growth of the yeast but not lead to death.\nAfter the completion of cultivation, the culture was centrifuged to collect the cells. To the cells, sodium acetate buffer (50 mM sodium acetate, 10 mM EDTA, 1% SDS) was added, and the mixture was shaken at 65° C. for five minutes, followed by returning to room temperature, and obtaining the supernatant, which procedure was repeated two times. To the supernatant, ½ amount of a solution of phenol/chloroform was added, and the mixture was centrifuged to give a supernatant, which was added with an equal amount of chloroform, and the mixture was centrifuged to give a supernatant. To the supernatant, an equal amount of isopropanol containing 0.3 M sodium acetate was added, and the mixture was allowed to stand at room temperature for 30 minutes, after which the mixture was centrifuged to give a sediment of the whole RNAs. Seventy % ethanol was added to the sediment, and the mixture was again centrifuged to give a sediment, which was then dried and dissolved in water. mRNA was isolated from the whole RNAs as followings. In view of the fact that a poly A chain is attached to the 3′ terminus of mRNA, a polynucleotide having a poly T structure which was immobilized on the surface of latex beads was used to trap the mRNA, and then the mRNA was washed and eluted with spine column (Oligotex-dT30<Super>mRNA Purification Kit, Takara). Reverse transcription of the mRNA was conducted with a reverse transcriptase (Super Script II Reverse Transcriptase; catalogue No. 18064-014, GibcoBRL) using fluorescence-labeled nucleotides to give cDNAs that were introduced with Cy3-dUTP or Cy5-dUTP during the reverse transcription.\nThe labeled cDNAs were dissolved in TE buffer (10 mM Tris-HCl/1 mM EDTA, pH8.0), and the solution was dropped on the DNA chip containing the whole genes of yeast (DNA Chip Research Inc. Japan) so that the cDNAs were hybridized on the DNA chip at 65° C. for over 12 hours. The fluoresces intensity of the DNA chip was read with a scanner, and the ratio relative to the fluorescence intensity resulting from the absence of chemical substance was estimated as the following, which is shown in Tables 1 to 9: [formula]\nIn the Tables, “Intensity” indicated in the rightmost column is a value of the level of expressed mRNA of each gene in control cells as divided by the average level of the expressions of the whole genes.",
  "data": [
    {"substance": "Na2As [(1)]", "values": [
      {"measurement": "The level of expressed mRNA in the presence of chemical substance/", "setting": "yeast gene YKL086W, ratio to control without chemical", "result": 1.0},
      {"measurement": "The level of expressed mRNA in the presence of chemical substance/The level of expressed mRNA in the absence of chemical substance", "setting": "yeast gene YKL096W", "result": 1.4},
      {"measurement": "The level of expressed mRNA in the presence of chemical substance/The level of expressed mRNA in the absence of chemical substance", "setting": "yeast gene YKL139W", "result": 0.9},
      {"measurement": "The level of expressed mRNA in the presence of chemical substance/", "setting": "yeast gene YKL151C, ratio to control without chemical substance, 2 h culture", "result": 1.2},
      {"measurement": "The level of expressed mRNA in the presence of chemical substance/", "setting": "yeast gene YKL153W, ratio to control without chemical substance, 2 h culture", "result": 1.1},
      {"measurement": "The level of expressed mRNA in the presence of chemical substance/The level of expressed mRNA in the absence of chemical substance", "setting": "yeast gene YKL165C", "result": 0.5},
      {"measurement": "The level of expressed mRNA in the presence of chemical substance/The level of expressed mRNA in the absence of chemical substance", "setting": "yeast gene YKL193C", "result": 1.3},
      {"measurement": "The level of expressed mRNA in the presence of chemical substance/", "setting": "yeast gene YKL195W, ratio to control without chemical substance, 2 h culture", "result": 0.8},
      {"measurement": "The level of expressed mRNA in the presence of chemical substance/in the absence of chemical substance", "setting": "yeast gene YKR009C", "result": 1.0},
      {"measurement": "The level of expressed mRNA in the presence of chemical substance/The level of expressed mRNA in the absence of chemical substance", "setting": "yeast gene YKR014C", "result": 1.1},
      {"measurement": "The level of expressed mRNA in the presence of chemical substance/", "setting": "yeast gene YKR091W, ratio to control without chemical", "result": 1.5},
      {"measurement": "The level of expressed mRNA in the presence of chemical substance/", "setting": "yeast gene YLR054C, ratio to control without chemical substance, 2 h culture", "result": 2.0},
      {"measurement": "The level of expressed mRNA in the presence of chemical substance/The level of expressed mRNA in the absence of chemical substance", "setting": "yeast gene YLR120C", "result": 1.2},
      {"measurement": "The level of expressed mRNA in the presence of chemical substance/The level of expressed mRNA in the absence of chemical substance", "setting": "yeast gene YLR136C", "result": 1.3},
      {"measurement": "The level of expressed mRNA in the presence of chemical substance/", "setting": "yeast gene YLR149C, ratio to control without chemical substance, 2 h culture", "result": 1.4},
      {"measurement": "The level of expressed mRNA in the presence of chemical substance/", "setting": "yeast gene YLR152C, ratio to control without chemical substance, 2 h culture", "result": 0.7},
      {"measurement": "The level of expressed mRNA in the presence of chemical substance/The level of expressed mRNA in the absence of chemical substance", "setting": "yeast gene YLR178C", "result": 1.7},
      {"measurement": "The level of expressed mRNA in the presence of chemical substance/", "setting": "yeast gene YLR194C, ratio to control without chemical", "result": 2.1},
      {"measurement": "The level of expressed mRNA in the presence of chemical substance/The level of expressed mRNA in the absence of chemical substance", "setting": "yeast gene YLR250W", "result": 1.5},
      {"measurement": "The level of expressed mRNA in the presence of chemical substance/", "setting": "yeast gene YLR324W, ratio to control without chemical substance, 2 h culture", "result": 0.7},
      {"measurement": "The level of expressed mRNA in the presence of chemical substance/The level of expressed mRNA in the absence of chemical substance", "setting": "yeast gene YLR327C", "result": 5.5},
      {"measurement": "The level of expressed mRNA in the presence of chemical substance/", "setting": "yeast gene YLR350W, ratio to control without chemical substance, 2 h culture", "result": 1.2},
      {"measurement": "The level of expressed mRNA in the presence of chemical substance/in the absence of chemical substance", "setting": "yeast gene YLR351C", "result": 1.0},
      {"measurement": "The level of expressed mRNA in the presence of chemical substance/The level of expressed mRNA in the absence of chemical substance", "setting": "yeast gene YLR356W", "result": 1.0},
      {"measurement": "The level of expressed mRNA in the presence of chemical substance/The level of expressed mRNA in the absence of chemical substance", "setting": "yeast gene YLR362W", "result": 1.1},
      {"measurement": "The level of expressed mRNA in the presence of chemical substance/in the absence of chemical substance", "setting": "yeast gene YLR375W", "result": 0.9},
      {"measurement": "The level of expressed mRNA in the presence of chemical substance/", "setting": "yeast gene YLR387C, ratio to control without chemical substance, 2 h culture", "result": 0.9},
      {"measurement": "The level of expressed mRNA in the presence of chemical substance/The level of expressed mRNA in the absence of chemical substance", "setting": "yeast gene YLR429W", "result": 0.7},
      {"measurement": "The level of expressed mRNA in the presence of chemical substance/", "setting": "yeast gene YLR460C, ratio to control without chemical substance, 2 h culture", "result": 2.1},
      {"measurement": "The level of expressed mRNA in the presence of chemical substance/", "setting": "yeast gene YML117W, ratio to control without chemical substance, 2 h culture", "result": 0.9},
      {"measurement": "The level of expressed mRNA in the presence of chemical substance/The level of expressed mRNA in the absence of chemical substance", "setting": "yeast gene YMR004W", "result": 0.9},
      {"measurement": "The level of expressed mRNA in the presence of chemical substance/", "setting": "yeast gene YMR009W, ratio to control without chemical substance, 2 h culture", "result": 2.3},
      {"measurement": "The level of expressed mRNA in the presence of chemical substance/", "setting": "yeast gene YMR067C, ratio to control without chemical substance, 2 h culture", "result": 0.9},
      {"measurement": "The level of expressed mRNA in the presence of chemical substance/", "setting": "yeast gene YMR090W, ratio to control without chemical substance, 2 h culture", "result": 6.9},
      {"measurement": "The level of expressed mRNA in the presence of chemical substance/The level of expressed mRNA in the absence of chemical substance", "setting": "yeast gene YMR094W", "result": 1.0},
      {"measurement": "The level of expressed mRNA in the presence of chemical substance/", "setting": "yeast gene YMR095C, ratio to control without chemical", "result": 1.1},
      {"measurement": "The level of expressed mRNA in the presence of chemical substance/", "setting": "yeast gene YMR097C, ratio to control without chemical substance, 2 h culture", "result": 1.5},
      {"measurement": "The level of expressed mRNA in the presence of chemical substance/", "setting": "yeast gene YMR102C, ratio to control without chemical substance, 2 h culture", "result": 1.0},
      {"measurement": "The level of expressed mRNA in the presence of chemical substance/The level of expressed mRNA in the absence of chemical substance", "setting": "yeast gene YMR104C", "result": 1.9},
      {"measurement": "The level of expressed mRNA in the presence of chemical substance/", "setting": "yeast gene YMR107W, ratio to control without chemical substance, 2 h culture", "result": 5.0},
      {"measurement": "The level of expressed mRNA in the presence of chemical substance/", "setting": "yeast gene YMR180C, ratio to control without chemical substance, 2 h culture", "result": 1.2},
      {"measurement": "The level of expressed mRNA in the presence of chemical substance/", "setting": "yeast gene YMR184W, ratio to control without chemical substance, 2 h culture", "result": 1.3},
      {"measurement": "The level of expressed mRNA in the presence of chemical substance/", "setting": "yeast gene YMR191W, ratio to control without chemical substance, 2 h culture", "result": 1.3},
      {"measurement": "The level of expressed mRNA in the presence of chemical substance/The level of expressed mRNA in the absence of chemical substance", "setting": "yeast gene YMR219W", "result": 0.7},
      {"measurement": "The level of expressed mRNA in the presence of chemical substance/The level of expressed mRNA in the absence of chemical substance", "setting": "yeast gene YMR226C", "result": 1.1},
      {"measurement": "The level of expressed mRNA in the presence of chemical substance/in the absence of chemical substance", "setting": "yeast gene YMR267W", "result": 0.8},
      {"measurement": "The level of expressed mRNA in the presence of chemical substance/The level of expressed mRNA in the absence of chemical substance", "setting": "yeast gene YMR275C", "result": 0.7},
      {"measurement": "The level of expressed mRNA in the presence of chemical substance/The level of expressed mRNA in the absence of chemical substance", "setting": "yeast gene YMR276W", "result": 0.6},
      {"measurement": "The level of expressed mRNA in the presence of chemical substance/in the absence of chemical substance", "setting": "yeast gene YMR278W", "result": 0.7},
      {"measurement": "The level of expressed mRNA in the presence of chemical substance/in the absence of chemical substance", "setting": "yeast gene YMR293C", "result": 0.9},
      {"measurement": "The level of expressed mRNA in the presence of chemical substance/", "setting": "yeast gene YMR295C, ratio to control without chemical substance, 2 h culture", "result": 1.7},
      {"measurement": "The level of expressed mRNA in the presence of chemical substance/", "setting": "yeast gene YMR316W, ratio to control without chemical substance, 2 h culture", "result": 3.2},
      {"measurement": "The level of expressed mRNA in the presence of chemical substance/The level of expressed mRNA in the absence of chemical substance", "setting": "yeast gene YNL006W", "result": 1.1},
      {"measurement": "The level of expressed mRNA in the presence of chemical substance/The level of expressed mRNA in the absence of chemical substance", "setting": "yeast gene YNL007C", "result": 0.7},
      {"measurement": "The level of expressed mRNA in the presence of chemical substance/", "setting": "yeast gene YNL044W, ratio to control without chemical substance, 2 h culture", "result": 1.3}
    ]}
  ]
}
